Measurements reported in patent US20260007679A1, “METHODS OF TREATING CANCER USING 3-(4-((4-(MORPHOLINOMETHYL)BENZYL)OXY)-1-OXOISOINDOLIN-2-YL)PIPERIDINE-2,6-DIONE” (Celgene Corporation, priority 2012, published 2026).
Each block holds one compound with its values, some of them ahead of it.

Legend:
[1] = system: DoHH2 cell line; test: Apoptosis analysis (annexin-V); assay type: cell-based
Description: Apoptosis Analysis: Cells were treated with DMSO or an amount of a compound provided herein at various time points, then washed with annexin-V wash buffer (BD Biosciences). Cells were incubated with annexin-V binding protein and propidium iodide (BD Biosciences) for 10 minutes. Samples were analyzed using flow cytometry.

[2] = system: NFκB p65 and p50; test: NFκB activity in DLBCL cells (Active Motif transcription factor assay); assay type: cell-based; conditions: 1 μM and 10 μM; 2 days; ABC-DLBCL lines such as TMD8 and OCI-Ly10
Description: DLBCL cells were treated with test compound or an IKK1/2 dual inhibitor (used as a positive inhibitor control) for 2 days. NFκB activity was examined with Active Motif transcription factor assay using nuclear extracts from cells following treatment.

[3] = system: blood vessel growth in Matrigel plugs; test: Mouse Matrigel angiogenesis model; assay type: in vivo, C57B/6 mice; conditions: 3 and 30 mpk; 10 days
Description: Mouse Matrigel Angiogenesis model was conducted as follows: Matrigel plugs with rhVegf, rhbFGF and heparin were inserted into C57B/6 mice for 10 days with drug treatment. Plugs were analyzed for ms CD31 by IHC.

[4] = system: WSU-DLCL2 DLBCL xenograft; test: WSU-DLCL2 DLBCL xenograft model
[5] = system: NK cells; test: NK IgG-induced IFN-γ assay; assay type: cell-based, human; conditions: immobilized IgG and IL-2 stimulation; 7 donors
Excerpt: NK cells from healthy donors were isolated from buffy coat blood by negative selection using the RosetteSep NK cell enrichment cocktail (Stem Cell Technologies, Vancouver, BC) prior to Ficoll-Hypaque (Fisher Scientific Co LLC, PA) density gradient centrifugation following the manufacturers' instructions. CD56+NK cells were isolated to ˜85% purity, as determined by flow cytometry (BD Biosciences, CA).
NK IgG-induced Interferon-Gamma (IFN-γ) Assay: Ninety-six-well flat-bottom plates were coated with 100 µg/mL of human IgG (Sigma) overnight at 4° C. The next day, unbound IgG was washed away with cold 1×PBS. NK cells were then plated in the IgG-coated 96-well plates at 2×10^5 cells per well in 180 μL RPMI-1640 Media and 10 ng/mL of rhIL-2 (R & D Systems, MN) was added. Test compounds were added in a volume of 20 μL DMSO. Final concentrations of test compounds were […]. Final DMSO concentrations were […]. After 48 hours, the supernatants were harvested and analyzed by ELISA for IFN-γ production.
Data used to determine the test compounds to enhance NK cell IFN-γ production in response to immobilized IgG and rhIL-2 stimulation was analyzed for each donor using GraphPad Prism v5.0 software.

[6] = system: Revlimid-resistant NCI-H929 R1-10; test: Proliferation and viability by 7-AAD staining; assay type: cell-based; conditions: Homo sapiens, NCI-H929, 120 h; R1-10; 5 days; read-out: IC50, proliferation
[7] = system: Revlimid-resistant NCI-H929 R3-10; test: Proliferation and viability by 7-AAD staining; assay type: cell-based; conditions: Homo sapiens, NCI-H929, 120 h; R3-10; 5 days; read-out: IC50, proliferation
[8] = system: Farage DLBCL cells; test: 3 day 3H-thymidine incorporation assay; assay type: cell-based
[9] = system: Rec-1 MCL cells; test: 3 day 3H-thymidine incorporation assay; assay type: cell-based
[10] = biological target: T1, endogeneous human CRBN (U266 extract) (Homo sapiens, UniProt Q96SW2); test: Thalidomide affinity bead competition assay; assay type: binding
T1 construct: endogenous in cells; host or cells: U266 human multiple myeloma cells (NP-40 lysate)
Description: Affinity beads coupled to a thalidomide acid analog were incubated with the U266 extracts and, after extensive washing of the beads, the bound proteins were eluted. CRBN binding to the thalidomide-coupled affinity beads was determined by quantitative CRBN immunoblot determination.

[11] = system: DoHH2 cell line; test: Cell cycle analysis; assay type: cell-based
Description: (§1) Cell Cycle Analysis: Cells were treated with DMSO or an amount of a compound provided herein for 48 hours. Propidium iodide staining for cell cycle was performed using CycleTEST PLUS (Becton Dickinson) according to manufacturer's protocol. Following staining, cells were analyzed by a FACSCalibur flow cytometer using ModFit LT software (Becton Dickinson).

[12] = system: WSU-DLCL2 cell line; test: Cell cycle analysis; assay type: cell-based
Description: as §1

[13] = system: H929 cells; test: Cell cycle and protein expression in H929 cells; assay type: cell-based
[14] = system: Revlimid-resistant NCI-H929 R4-10; test: Proliferation and viability by 7-AAD staining; assay type: cell-based; conditions: Homo sapiens, NCI-H929, 120 h; R4-10; 5 days; read-out: IC50, proliferation
[15] = system: DoHH2 FL cells; test: 3 day 3H-thymidine incorporation assay; assay type: cell-based
[16] = system: human umbilical artery; test: Human umbilical artery assay; assay type: cell-based
Description: Compounds I, I-R, and I-S were tested in various angiogenesis inhibition assays.

[17] = system: purified primary human T cells stimulated using immobilized anti-CD3 antibody; test: T-cell costimulation, IL-2 production; assay type: cell-based
Description: CRBN ubiquitination was measured in HEK293T cells, which were transfected with an amino-terminal His-biotin-tagged CRBN construct, then preincubated with compounds for one hour followed by treatment with the MG132 proteasome inhibitor (to arrest degradation of ubiquitinated proteins). Cells were lysed and processed to measure CRBN ubiquitination by SDS-PAGE and immunoblot analysis using an anti-ubiquitin antibody. Cell proliferation studies were conducted in lenalidomide-sensitive and refractory multiple myeloma cells. […] T-cell costimulation was measured in purified primary human T cells stimulated using immobilized anti-CD3 antibody in cell culture for 2 days, and cytokine secretion was measured by ELISA.

SMILES: O=C1CCC(N2Cc3c(OCc4ccc(CN5CCOCC5)cc4)cccc3C2=O)C(=O)N1 (racemic) [Compound I, 3-(4-((4-(morpholinomethyl)benzyl)oxy)-1-oxoisoindolin-2-yl)piperidine-2,6-dione]
apoptosis induction and live cell number reduction in combination ([1]; combined with Rituxan): additive manner | apoptosis and cell numbers ([1]; single agent): induced apoptosis | NFκB p65 and p50 activity [2]: significantly inhibits | blood vessel growth (ms CD31 IHC) [3]: significantly inhibits | Tumor Free Survival on Day 44 ([4]; 3 mg/kg in combination with Rituxan 2 mg/kg iv qw): 6/10 | Tumor Free Survival on Day 44 ([4]; 30 mg/kg in combination with Rituxan 2 mg/kg iv qw): 6/10 | tumor response in combination with Rituxan ([4]; all combination treatment groups, complete regression = tumor volume <25 mm^3): complete regression

SMILES: O=C1CC[C@@H](N2Cc3c(OCc4ccc(CN5CCOCC5)cc4)cccc3C2=O)C(=O)N1 [Compound I-R, (R)-3-(4-((4-(morpholinomethyl)benzyl)oxy)-1-oxoisoindolin-2-yl)piperidine-2,6-dione]
NK cell IFN-γ production [5]: slightly more active than compound I

IC50 [6]: 1.32 µM | IC50 [7]: 0.51 µM | binding to CRBN [10]: binds to endogeneous human CRBN | IC50 [14]: 1.58 µM | IC50 [16]: 0.052 µM | EC50 [17]: ~0.00029 µM
SMILES: O=C1CC[C@H](N2Cc3c(OCc4ccc(CN5CCOCC5)cc4)cccc3C2=O)C(=O)N1 [Compound I-S, (S)-3-(4-((4-(morpholinomethyl)benzyl)oxy)-1-oxoisoindolin-2-yl)piperidine-2,6-dione]
NK cell IFN-γ production [5]: slightly more active than compound I | IC50 ([8]; Farage, 72 h, 3 day, read-out: anti-proliferative IC50): 0.28 µM | combination effect, fractional product method ([8]; combined with Rituxan): additive to synergistic manner | IC50 ([9]; Homo sapiens, Rec1, 72 h, 3 day, read-out: anti-proliferative IC50): 0.027 µM | combination effect, fractional product method ([9]; combined with Rituxan): additive manner | cell cycle effect [11]: induced G1 arrest | cell cycle effect [12]: induced G1 arrest | expression of cyclin-dependent kinase inhibitor p27 ([13]; 48 hours): increased | expression of retinoblastoma protein (pRB) ([13]; 48 hours): decreased | expression of survivin ([13]; 48 hours): decreased | decrease in cell cycle (S-phase) ([13]; after 24 hours of treatment): 50% | IC50 ([15]; Homo sapiens, DOHH-2, 72 h, 3 day, read-out: anti-proliferative IC50): 0.04 µM | combination effect, fractional product method ([15]; combined with Rituxan): synergistic manner
